Reference: patent US7166567B2, “Fragrance compositions” (Givaudan SA, priority 2000, dated 2007)
Where two headings read alike, the source gives them in different places.

What was measured:
Assay type in all cases: physicochemical
[1] = Loss Factor (vapour pressure x water solubility at room temperature)
From the text: Preferred components of a fragrance material for addition to the outer matrix are substances that have a Loss Factor (FL) that is lower than 10^2 Pa ppm. The term <<Loss Factor>> refers to a parameter that is related to the losses of fragrance material during drying and is defined as the product of the pure component vapour pressure (Pa) and the water solubility (ppm) at room temperature. Vapour pressures and water solubility data for commercially available fragrance components are well known and so the Loss Factor for a given fragrance component may be easily calculated. Alternatively, vapour pressure and water solubility measurements may be easily taken using techniques well known in the art. […] The water solubility of fragrances may be measured according to techniques known in the art for the measurement of sparingly water-soluble materials. A preferred technique involves the formation of a saturated solution of a fragrance component in water. A tube with a dialysed membrane is placed in the solution such that after equilibration an idealised solution is formed within the tube. The tube may be removed and the water solution therein extracted with a suitable organic solvent to remove the fragrance component. Finally the extracted fragrance component may be concentrated and measured, for example using gas chromatography.

[2] = Retention of fragrance material components after granulation by GC/MS; settings: for Divided. Initial Retention: fragrance divided between core particles and outer matrix (Example 2.2); for Undivided. Initial Retention: whole fragrance in outer matrix (Example 2.1)
From the text: In this example, fragrance material components are divided between core particles and outer matrix. The selection is made such that fragrance components having a loss factor of FL>10^2 Pa ppm are present in core particles whereas the components having a loss factor of FL<10^2 Pa ppm are present in the outer matrix. Such a composition is then compared with a composition wherein total fragrance material is provided in an outer matrix, the core particles being fragrance material-free. […] The retention of certain fragrance material components after the granulation process was measured by GC/MS analysis.

[3] = Aged retention of fragrance components in powder detergent, GC/MS; settings: 1 month, 37° C., 70% relative humidity; for Retention With coating: composition as Example 1 with coating in detergent base; for Retention Without coating: composition as Example 1 without coating in detergent base; for Retention free perfume: free perfume in detergent base, 0.35 wt %
Description: Compositions were prepared substantially as set out in Example 1 wherein one composition was provided with a coating and the other not.
Compositions were incorporated into standard, unperfumed detergent bases resulting in 130.00 g perfumed powder detergent with a perfume level of 0.35 wt % based on total powder detergent. As a reference, 0.46 g of free perfume was incorporated into 129.54 g of the same standard detergent base. Both samples and reference were filled separately into carton boxes, sealed and stored in a climate chamber at 70% relative humidity and 37° C. for 1 month. All samples were compared in terms of aged fragrance material profile measured by GC/MS analysis.

[4] = vapour pressure (Pa) x water solubility (ppm), room temperature

Loss Factor FL [1]	Divided. Initial Retention [2]	Undivided. Initial Retention [2]	Retention With coating [3]	Retention Without coating [3]	Retention free perfume [3]	Loss Factor FL [1, 4]	Structure (SMILES)
84 Pa ppm	84%	56%					CC(=O)CCC1=C(C)CCCC1(C)C [Dihydro beta ionone]
	88%	99%					O=C(OCc1ccccc1)c1ccccc1 [Benzyl benzoate]
			41%	18%	0%		C=C(C)[C@H]1CC=C(C)CC1 [Limonene]
			72%	36%	25%		OCCc1ccccc1 [Phenyl ethyl alcohol]
424 Pa ppm	93%	44%					CCCCCCCCCC=O [Aldehyde C10]
	100%	53%	71%	18%	26%	761 Pa ppm	CC(C)=CCCC(C)CCO (centres unmarked) [Citronellol]
	100%	75%				90 Pa ppm	CC(=O)/C=C/C1=C(C)CCCC1(C)C [Beta ionone]
			50%	26%	0%		CC(=O)OCc1ccccc1 [Benzyl acetate]
			91%	51%	49%		CC(=O)/C(C)=C/C1C(C)=CCCC1(C)C (centres unmarked) [Gamma methyl ionone]
			65%	36%	4%		CC(C=O)Cc1ccc(C(C)(C)C)cc1 (centres unmarked) [Lilial]
			94%	47%	18%		CCCCCCOC(=O)c1ccccc1O [Hexyl salicylate]
	94%	91%				1.37 Pa ppm	O=C(OC1CCCCC1)c1ccccc1O [Cyclohexyl salicylate]

Structure (SMILES)	Loss Factor FL [1]	Divided. Initial Retention [2]	Undivided. Initial Retention [2]	Retention With coating [3]	Retention Without coating [3]	Retention free perfume [3]	Loss Factor FL [1, 4]
C=CC(C)(CCC=C(C)C)OC(C)=O (centres unmarked) [Linalyl acetate]				80%	39%	8%	
CCC(C)(O)CCCC(C)C (centres unmarked) [Tetrahydro linalool]		97%	47%	84%	50%	33%	3466 Pa ppm
